Results on five compounds are retold here after patent US11034654B2, “2,3-dihydroisoindole-1-carboxamides useful as ROR-gamma modulators” (AstraZeneca AB, priority 2017, dated 2021).

SMILES strings stand for the structures.

One test has as its system human TH17 cells. As to the kind of experiment: Inhibition of IL-17 release from human TH17 cells. In kind it is cell-based. The note with it: 96 h; isolated human TH17 cells cultured 4 days, IL-17A in supernatant by HTRF; read-out: pIC50 IL-17 release (converted). An excerpt: Inhibition of IL-17 Release from Human TH17 Cells
This test is designed to screen compounds for their inhibitory effect on the release of IL-17 from isolated and cultured human TH17 cells.
Peripheral blood mononuclear cells (PBMC) were isolated from heparin treated human whole blood from healthy donors by density gradient centrifugation. TH17 cells (CD4+CXCR3−CCR6+) were enriched using a human TH17 Cell Enrichment Kit (Stemcell Technologies) according to the manufacturer's protocol. The isolated TH17 cells were activated with aCD3aCD28 beads (MACS Miltenyi) and cultured in X-Vivo15 medium (Lonza) supplemented with L-glutamine, β-mercaptoethanol and a cytokine cocktail consisting of; IL-2, IL-23, IL-1β, IL-6, TGF-β. Cells were seeded at 8000 cells/well in a 384-plate (Corning, #3707) in the presence of compounds or DMSO and cultured for 4 days (37° C., 5% CO2). On day 4 supernatants were collected and IL-17A was measured using a Human IL-17 HTRF Assay kit (Cisbio Bioassays) according to the manufacturer's protocol. The IC50 values for the tested compounds was calculated using Genedata Screener® software (Genedata) using the following calculation method; Compound % effect=100*[(X−min)/(max−min)], where X represents the normalized value for the compound based on the Min (DMSO) and Max (compound 3-(1,3-benzodioxol-5-yl)-1-(3,5-dimethylpiperidin-1-yl)-3-(2-hydroxy-4,6-dimethoxyphenyl)propan-1-one at 10 μM, described in J. R. Hu et al. ACS Med. Chem. Lett. 2013, 4, 79-84) inhibition controls. Results
Background: Time-resolved FRET reads energy transfer from a long-lived donor to a nearby acceptor.

Test [1] deals with T1, RORγ ligand binding domain (Homo sapiens, UniProt P51449). In words: RORγ co-factor recruitment assay (FRET). In kind it is biochemical. More on the design: made in house; host or cells: E. coli BL21DE3 Star. The conditions noted are these: inhibition of recruitment of SRC-1 peptide (NCOA1_677-700) to hRORγ LBD, HTRF read-out. The gist of the method: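 Inverse-agonist TR-FRET measuring biotinylated SRC-1 peptide (NCOA1 677-700, 160 nM in pre-mix) recruitment to E. coli-expressed biotinylated HN-Avi-MBP-TCS-hRORγ LBD (258-518; 100 nM in pre-mix), with Eu-streptavidin and streptavidin-APC, in MOPS pH 7.4 buffer, 1 h at rt. 665/612 nm ratio normalised to vehicle and reference control; IC50 from curve fit.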

The target in test [2] is T1, RORγ ligand binding domain. As to the kind of experiment: RORγ radioligand competition binding assay (SPA). The note with it: competition with tritiated 2-(4-(ethylsulfonyl)phenyl)-N-(4-(2-(methoxymethyl)phenyl)thiophen-2-yl)acetamide (25 nM), hRORγ LBD. The gist of the method:
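SPA competition on E. coli-expressed N-6×HN-Avi-GST-TCS-hRORγ LBD (S258-K518), 4 nM on YOx glutathione beads, in 20 mM Tris, 150 mM NaCl, 10% glycerol, 0.25% CHAPS, 1 mM TCEP. Compound pre-incubation 1 h RT, then 25 nM tritiated tracer for 16 h. IC50 normalized to vehicle/reference controls; Ki = IC50/(1+[L]/Kd), Kd 17 nmol/L.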

As to `CC(=O)N1Cc2cc(S(C)(=O)=O)ccc2C1C(=O)Nc1ccc(C(NCCCS(C)(=O)=O)(C(F)(F)F)C(F)(F)F)cc1` (stereo not drawn) [Example 22, 2-Acetyl-N-[4-(1,1,1,3,3,3-hexafluoro-2-{[3-(methylsulfonyl)propyl]amino}propan-2-yl)phenyl]-5-(methylsulfonyl)-2,3-dihydro-1H-isoindole-1-carboxamide], the values for the IC50 (in the test with human TH17 cells; in test [1]; in test [2]) were 794 nM, 1000 nM and 1000 nM, respectively.

With `COC(=O)CC(c1ccc(NC(=O)C2c3ccc(S(C)(=O)=O)cc3CN2C(C)=O)cc1)(C(F)(F)F)C(F)(F)F` (stereo not drawn) [Example 32, Methyl 3-[4-({[2-acetyl-5-(methylsulfonyl)-2,3-dihydro-1H-isoindol-1-yl]carbonyl}amino)phenyl]-4,4,4-trifluoro-3-(trifluoromethyl)butanoate], the IC50 in the test on human TH17 cells is 15.8 nM; in test [1], 50.1 nM; in test [2] it was 25.1 nM.

As for `CC(=O)N1Cc2cc(S(C)(=O)=O)ccc2C1C(=O)Nc1ccc(C(CC(=O)NCCF)(C(F)(F)F)C(F)(F)F)cc1` (stereo not drawn) [Example 41, 2-Acetyl-5-(methylsulfonyl)-N-(4-{1,1,1-trifluoro-4-[(2-fluoroethyl)amino]-4-oxo-2-(trifluoromethyl)butan-2-yl}phenyl)-2,3-dihydro-1H-isoindole-1-carboxamide], the IC50 with human TH17 cells is > 3160 nM; in test [1], 316 nM; in test [2], 794 nM.

Turning to `CC(=O)N1Cc2cc(S(C)(=O)=O)ccc2C1C(=O)Nc1ccc(C(Cc2nc(C)no2)(C(F)(F)F)C(F)(F)F)cc1` (stereo not drawn) [Example 34, 2-Acetyl-N-(4-{1,1,1,3,3,3-hexafluoro-2-[(3-methyl-1,2,4-oxadiazol-5-yl)methyl]propan-2-yl}phenyl)-5-(methylsulfonyl)-2,3-dihydro-1H-isoindole-1-carboxamide], the IC50 is 20 nM in the test with human TH17 cells, 126 nM in test [1] and 20 nM in test [2].

Consider `CCOC(=O)CC(c1ccc(NC(=O)C2c3ccc(S(C)(=O)=O)cc3CN2C(C)=O)cc1)(C(F)(F)F)C(F)(F)F` (stereo not drawn) [Example 37, Ethyl 3-[4-({[2-acetyl-5-(methylsulfonyl)-2,3-dihydro-1H-isoindol-1-yl]carbonyl}amino)phenyl]-4,4,4-trifluoro-3-(trifluoromethyl)butanoate], for which the figures for the IC50 (in the test on human TH17 cells; in test [1]; in test [2]) were 25.1 nM, 100 nM and 15.8 nM, respectively.
